The target of one assay is T1, 5-HT6 receptor (Homo sapiens, UniProt P50406).
T1 construct: purchased PerkinElmer
Put plainly: Radioligand binding assay, serotoninergic 5-HT6 receptors. Particulars: for inhibition at 1 µM: binding assay result in %, Table 5a; for Ki: read-out: Inhibition constants Ki, 5-HT6. The method in brief:
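Values are Ki from Cheng–Prusoff, taking IC50 from Hill nonlinear regression of competition curves and KD from a Scatchard plot. Specific binding was total minus binding with excess unlabelled ligand. Radioligand displacement was detected by scintillation counting, and data were also reported as percent of control specific binding.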

The target in another assay is T2, 5-HT2C receptor (Homo sapiens, UniProt P28335).
T2 construct: expressed in transfected cells; host or cells: HEK-293 cells
T2 sequence (P28335 33-458): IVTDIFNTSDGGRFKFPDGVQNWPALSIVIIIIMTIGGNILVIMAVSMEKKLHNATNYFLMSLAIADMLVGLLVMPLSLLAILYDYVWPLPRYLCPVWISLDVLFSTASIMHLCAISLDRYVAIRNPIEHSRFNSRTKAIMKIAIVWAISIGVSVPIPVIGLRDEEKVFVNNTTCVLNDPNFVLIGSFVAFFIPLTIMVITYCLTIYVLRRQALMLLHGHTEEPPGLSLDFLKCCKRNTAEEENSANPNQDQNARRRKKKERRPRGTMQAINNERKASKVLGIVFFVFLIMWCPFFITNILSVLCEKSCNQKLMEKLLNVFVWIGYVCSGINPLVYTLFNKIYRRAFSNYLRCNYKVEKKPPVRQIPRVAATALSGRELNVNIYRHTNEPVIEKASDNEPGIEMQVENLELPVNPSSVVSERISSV
Description: Radioligand binding assay, serotoninergic 5-HT2C receptors. Particulars: test compound 1×10^−6 M.

Assay [1] concerns the target T3, serotonin transporter (SERT) (Homo sapiens, UniProt P31645).
T3 construct: expressed in transfected cells; host or cells: CHO cells
Put plainly: Radioligand binding assay, serotonin transporter (SERT). The settings on record: for inhibition at 1 µM: binding assay, test compound 1×10^−6 M. The procedure, abridged: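 Radioligand competition binding with scintillation detection; specific binding is total minus binding under excess unlabelled ligand. Reported as % of control specific binding or % inhibition; IC50 from Hill-equation non-linear regression of competition curves, and Ki via Cheng-Prusoff using radioligand concentration and Scatchard-derived KD.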

In assay [2] the test system is α1 adrenergic receptors (rat cerebral cortex). Description: Radioligand binding assay, adrenergic α1 receptors. The settings on record: test compound 1×10^−6 M. The procedure, abridged:
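Values derive from radioligand displacement, with non-specific binding defined by excess cold ligand and detection by scintillation. Hill-fit IC50s were converted to Ki via Cheng-Prusoff using Scatchard-derived Kd; percent inhibition of control specific binding also reported.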

A further assay deals with T4, M3 muscarinic receptors (Homo sapiens, UniProt P20309).
T4 construct: expressed in transfected cells; host or cells: CHO cells
T4 sequence (P20309 whole entry): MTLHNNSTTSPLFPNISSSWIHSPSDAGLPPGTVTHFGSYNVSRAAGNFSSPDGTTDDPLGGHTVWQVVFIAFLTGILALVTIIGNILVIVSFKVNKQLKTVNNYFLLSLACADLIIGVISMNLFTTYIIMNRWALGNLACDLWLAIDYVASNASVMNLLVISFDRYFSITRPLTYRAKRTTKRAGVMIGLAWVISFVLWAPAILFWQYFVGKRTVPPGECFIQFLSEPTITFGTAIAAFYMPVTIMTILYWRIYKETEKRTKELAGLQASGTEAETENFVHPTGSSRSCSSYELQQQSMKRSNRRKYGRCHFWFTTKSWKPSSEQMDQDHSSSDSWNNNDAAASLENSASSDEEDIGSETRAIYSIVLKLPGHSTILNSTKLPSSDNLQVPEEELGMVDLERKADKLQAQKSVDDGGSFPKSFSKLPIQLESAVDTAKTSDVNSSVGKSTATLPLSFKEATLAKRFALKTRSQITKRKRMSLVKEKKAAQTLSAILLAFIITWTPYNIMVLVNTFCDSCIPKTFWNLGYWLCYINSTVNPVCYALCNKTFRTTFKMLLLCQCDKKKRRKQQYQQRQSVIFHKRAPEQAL
Put plainly: Radioligand binding assay, muscarinic M3 receptors. Particulars: test compound 1×10^−6 M. The method in brief:
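Radioligand competition binding, detected by scintillation counting; non-specific binding defined with excess unlabelled ligand. Results given as % inhibition of control specific binding; IC50 from Hill-equation fit of competition curves, Ki via Cheng-Prusoff with radioligand KD from Scatchard plot.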

Assay [3] concerns the target dopaminergic receptors D2 (Homo sapiens, UniProt P14416). Description: Radioligand binding assay, dopaminergic D2 receptors. The settings on record: for inhibition at 1 µM: binding assay, test compound 1×10^−6 M; for Ki: read-out: Inhibition constants Ki for D2 receptors, D2. The method in brief:
(§1)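 Competition radioligand binding at human D2, D3 and D4.4 receptors, detected by scintillation counting; nonspecific binding defined with excess unlabelled ligand. Results as percent inhibition of control specific binding; IC50 by Hill-equation nonlinear regression; Ki via Cheng-Prusoff, with radioligand KD from Scatchard plot.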

Another assay addresses T5, receptors D4.4 (Homo sapiens, UniProt P21917).
T5 sequence (P21917 1-419): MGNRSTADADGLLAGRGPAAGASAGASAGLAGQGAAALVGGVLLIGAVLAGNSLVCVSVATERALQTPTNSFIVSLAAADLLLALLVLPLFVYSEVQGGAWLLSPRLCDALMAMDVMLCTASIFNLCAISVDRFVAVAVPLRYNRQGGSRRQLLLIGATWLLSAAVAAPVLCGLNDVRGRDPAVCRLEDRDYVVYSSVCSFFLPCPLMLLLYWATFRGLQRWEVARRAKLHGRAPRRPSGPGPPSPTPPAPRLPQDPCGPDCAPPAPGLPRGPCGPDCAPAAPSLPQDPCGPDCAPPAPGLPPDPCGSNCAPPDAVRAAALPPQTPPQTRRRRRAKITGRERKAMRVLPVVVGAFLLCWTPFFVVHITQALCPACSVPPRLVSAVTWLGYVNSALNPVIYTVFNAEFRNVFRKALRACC
Description: Radioligand binding assay, dopaminergic D4 (D4.4) receptors. The settings on record: test compound 1×10^−6 M. The procedure, abridged:
as §1

Chain of dopaminergic receptors D2 (P14416 whole entry): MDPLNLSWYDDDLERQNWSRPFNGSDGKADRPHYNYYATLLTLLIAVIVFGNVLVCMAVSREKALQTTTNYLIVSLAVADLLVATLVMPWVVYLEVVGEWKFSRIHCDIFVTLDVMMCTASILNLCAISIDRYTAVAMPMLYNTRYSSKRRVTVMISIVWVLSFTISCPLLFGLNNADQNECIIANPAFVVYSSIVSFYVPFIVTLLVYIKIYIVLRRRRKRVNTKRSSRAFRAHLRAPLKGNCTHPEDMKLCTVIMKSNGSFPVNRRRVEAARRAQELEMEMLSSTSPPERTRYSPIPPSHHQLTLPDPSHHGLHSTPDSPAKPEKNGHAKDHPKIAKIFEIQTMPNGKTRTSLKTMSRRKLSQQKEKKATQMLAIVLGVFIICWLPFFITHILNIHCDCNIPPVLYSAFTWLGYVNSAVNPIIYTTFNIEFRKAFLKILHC
T3 sequence (P31645 whole entry): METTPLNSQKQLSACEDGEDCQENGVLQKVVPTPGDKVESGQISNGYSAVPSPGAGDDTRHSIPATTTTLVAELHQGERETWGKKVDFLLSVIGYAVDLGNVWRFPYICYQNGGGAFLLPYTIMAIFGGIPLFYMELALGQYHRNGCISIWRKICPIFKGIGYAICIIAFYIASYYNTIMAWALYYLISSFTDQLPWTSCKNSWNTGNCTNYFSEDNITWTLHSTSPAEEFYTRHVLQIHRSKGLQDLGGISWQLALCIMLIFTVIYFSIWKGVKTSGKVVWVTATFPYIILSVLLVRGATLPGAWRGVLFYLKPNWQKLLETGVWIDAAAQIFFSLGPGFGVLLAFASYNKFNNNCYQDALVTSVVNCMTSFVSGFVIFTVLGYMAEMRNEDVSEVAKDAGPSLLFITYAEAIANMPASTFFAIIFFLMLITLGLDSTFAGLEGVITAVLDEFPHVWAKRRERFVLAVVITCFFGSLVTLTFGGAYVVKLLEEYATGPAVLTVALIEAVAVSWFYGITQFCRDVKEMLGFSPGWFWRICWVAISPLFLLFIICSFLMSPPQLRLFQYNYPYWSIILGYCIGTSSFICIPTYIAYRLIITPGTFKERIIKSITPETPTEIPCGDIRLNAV
T1 sequence (P50406 whole entry): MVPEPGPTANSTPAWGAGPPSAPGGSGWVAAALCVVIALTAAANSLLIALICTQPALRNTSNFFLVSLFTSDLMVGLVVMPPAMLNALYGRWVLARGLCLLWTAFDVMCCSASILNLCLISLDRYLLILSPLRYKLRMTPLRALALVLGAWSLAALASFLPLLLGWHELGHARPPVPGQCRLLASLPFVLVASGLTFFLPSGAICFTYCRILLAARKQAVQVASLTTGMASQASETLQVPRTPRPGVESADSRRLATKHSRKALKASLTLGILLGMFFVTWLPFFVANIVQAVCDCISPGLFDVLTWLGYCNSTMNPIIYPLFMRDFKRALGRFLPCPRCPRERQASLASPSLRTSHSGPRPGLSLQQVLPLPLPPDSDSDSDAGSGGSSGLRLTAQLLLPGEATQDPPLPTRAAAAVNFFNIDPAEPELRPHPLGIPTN

As for `Cc1c(S(=O)(=O)NC2CCN(CCCc3noc4cc(F)ccc34)C2)sc2ccc(F)cc12` (stereo not drawn) [Compound 28, 5-Fluoro-N-[1-[3-(6-fluoro-1,2-benzoxazol-3-yl)propyl]pyrrolidin-3-yl]-3-methyl-benzothiophene-2-sulphonamide], the inhibition at 1 µM was 96% at 5-HT6 receptor; 72% on 5-HT2C receptor; 54% in assay [1]; 13% on M3 muscarinic receptors; 97% in assay [3]; 75% at receptors D4.4. Besides, in assay [2], the “α1 [%]” value is 70%.
`COc1ccc2cc(S(=O)(=O)NC3CCN(CCCc4noc5cc(F)ccc45)C3)ccc2c1` (stereo not drawn) [Compound 227, N-[1-[3-(6-Fluoro-1,2-benzoxazol-3-yl)propyl]pyrrolidin-3-yl]-6-methoxy-naphthalene-2-sulphonamide]: the inhibition at 1 µM on 5-HT6 receptor worked out at 94%; on 5-HT2C receptor, 82%; in assay [1], 69%; on M3 muscarinic receptors, 13%; in assay [3], 97%; on receptors D4.4 it was 88%. Further, in assay [2], the “α1 [%]” value stood at 85%.
Regarding `Cc1ccc2sc(S(=O)(=O)N[C@@H]3CCN(CCCc4noc5cc(F)ccc45)C3)cc2c1` [Compound 228, N-[(3R)-1-[3-(6-Fluoro-1,2-benzoxazol-3-yl)propyl]pyrrolidin-3-yl]-5-methyl-benzothiophene-2-sulphonamide], the inhibition at 1 µM is 100% on 5-HT6 receptor; 91% at 5-HT2C receptor; 61% in assay [1]; 12% at M3 muscarinic receptors; 100% in assay [3]; 68% at receptors D4.4. Also, the Ki was determined as 14 nM at 5-HT6 receptor and 0.7 nM in assay [3]. Also, in assay [2], the “α1 [%]” value came out at 88%.
For `CC(C)(C)c1ccc(S(=O)(=O)NCC2CN(CCOc3cccc4c3OCCO4)C2)cc1` [Compound 181, 4-tert-Butyl-N-[[1-[2-(2,3-dihydro-1,4-benzodioxin-5-yloxy)ethyl]azetidin-3-yl]methyl]benzenesulphonamide], the inhibition at 1 µM at 5-HT6 receptor was found to be 30%; at 5-HT2C receptor, 93%; in assay [1], 26%; at M3 muscarinic receptors, 0%; in assay [3] it was 73%; on receptors D4.4 it was 64%. Further, the “α1 [%]” value in assay [2] is on record as 50%.
`O=S(=O)(N[C@@H]1CCN(CCCc2noc3cc(F)ccc23)C1)c1cc2ccc(Cl)cc2s1` [Compound 198, 6-Chloro-N-[(3R)-1-[3-(6-fluoro-1,2-benzoxazol-3-yl)propyl]pyrrolidin-3-yl]benzothiophene-2-sulphonamide]: the inhibition at 1 µM was 97% on 5-HT6 receptor; 86% on 5-HT2C receptor; 44% in assay [1]; 37% at M3 muscarinic receptors; 99% in assay [3]; 48% on receptors D4.4. Also, the Ki at 5-HT6 receptor was 8.6 nM; in assay [3] it was 1.8 nM. Besides, in assay [2], the “α1 [%]” value came out at 76%.
With `O=S(=O)(NC1CCN(CCCc2noc3cc(F)ccc23)C1)c1cc2ccccc2s1` (stereo not drawn) [Compound 25, N-[1-[3-(6-Fluoro-1,2-benzoxazol-3-yl)propyl]pyrrolidin-3-yl]-benzothiophene-2-sulphonamide], the inhibition at 1 µM came out at 95% at 5-HT6 receptor; 83% at 5-HT2C receptor; 42% in assay [1]; 23% on M3 muscarinic receptors; 98% in assay [3]; 84% on receptors D4.4. Besides, the “α1 [%]” value in assay [2] is reported as 85%.
Regarding `Cc1cc(S(=O)(=O)N[C@@H]2CCN(CCCc3noc4cc(F)ccc34)C2)c(C)s1` [Compound 222, N-[(3R)-1-[3-(6-Fluoro-1,2-benzoxazol-3-yl)propyl]pyrrolidin-3-yl]-2,5-dimethyl-thiophene-3-sulphonamide], the inhibition at 1 µM on 5-HT6 receptor worked out at 94%; at 5-HT2C receptor, 65%; in assay [1] it was 2%; at M3 muscarinic receptors, 18%; in assay [3] it was 97%; on receptors D4.4, 98%. For the same compound, the “α1 [%]” value in assay [2] came to 92%.
Take `O=S(=O)(NC1CN(CCOc2cccc3[nH]ccc23)C1)c1ccc(F)cc1` [Compound 46, 4-Fluoro-N-[1-[2-(1H-indol-4-yloxy)ethyl]azetidin-3-yl]benzene-sulphonamide]: the inhibition at 1 µM at 5-HT6 receptor was 9%; at 5-HT2C receptor, 21%; in assay [1], 7%; at M3 muscarinic receptors it was -13%; in assay [3], 93%; at receptors D4.4, 72%. The “α1 [%]” value in assay [2] is listed as 85%.
Take `O=S(=O)(NC1CCN(CCCc2c[nH]c3ccc(Cl)cc23)C1)c1cccc(Cl)c1` (stereo not drawn) [Compound 84, 3-Chloro-N-[1-[3-(5-chloro-1H-indol-3-yl)propyl]pyrrolidin-3-yl]benzenesulphonamide]: the inhibition at 1 µM on 5-HT6 receptor was 96%; on 5-HT2C receptor it was 88%; in assay [1] it was 104%; on M3 muscarinic receptors it was 3%; in assay [3], 89%; at receptors D4.4, 94%. The inhibitory constant (Ki) at 5-HT6 receptor was determined as 18 nM; in assay [1] (read-out: Inhibition constants Ki for SERT, SERT), 2.6 nM. In addition, the “α1 [%]” value in assay [2] came to 51%.
Turning to `O=S(=O)(NCC1CCN(CCOc2cccc3c2OCCO3)C1)c1ccc(C(F)(F)F)cc1` (stereo not drawn) [Compound 293, N-[[1-[2-(2,3-Dihydro-1,4-benzodioxin-5-yloxy)ethyl]pyrrolidin-3-yl]methyl]-4-(trifluoromethyl)benzenesulphonamide], the inhibition at 1 µM at 5-HT6 receptor amounted to 47%; on 5-HT2C receptor, 50%; in assay [1], 82%; on M3 muscarinic receptors, 10%; in assay [3] it was 66%; on receptors D4.4, 35%. For the same compound, the “α1 [%]” value in assay [2] was found to be 77%.
Regarding `O=S(=O)(NCC1CN(CCOc2cccc3c2OCCO3)C1)c1ccc(Cl)c(Cl)c1` [Compound 183, 3,4-Dichloro-N-[[1-[2-(2,3-dihydro-1,4-benzodioxin-5-yloxy)ethyl]azetidin-3-yl]methyl]benzenesulphonamide], the inhibition at 1 µM amounted to 81% on 5-HT6 receptor; 98% at 5-HT2C receptor; 48% in assay [1]; 13% on M3 muscarinic receptors; 92% in assay [3]; 80% on receptors D4.4. The “α1 [%]” value in assay [2] is given as 85%.
For the compound `O=S(=O)(NCC1CCN(CCOc2cccc3c2OCCO3)C1)c1ccc(F)c(Cl)c1` (stereo not drawn) [Compound 317, 3-Chloro-N-[[1-[2-(2,3-dihydro-1,4-benzodioxin-5-yloxy)ethyl]pyrrolidin-3-yl]methyl]-4-fluorobenzenesulphonamide], the inhibition at 1 µM on 5-HT6 receptor turned out to be 76%; at 5-HT2C receptor, 45%; in assay [1], 63%; on M3 muscarinic receptors, 8%; in assay [3] it was 53%; at receptors D4.4, 59%. For the same compound, in assay [2], the “α1 [%]” value came to 84%.

The values are drawn from US20140135310A1, “SULPHONAMIDE DERIVATIVES OF ALICYCLIC AMINES FOR THE TREATMENT OF CENTRAL NERVOUS SYSTEM DISEASES” (Adamed Sp. z o.o., priority 2011, published 2014).
